Reference: US4283539A, “Isoquinoline acetic acids” (Pfizer Inc., priority 1979, dated 1981)
Where a name gives a salt, the structure may show the parent alone. One block for each compound: values may come before it.

Target: T1, aldose reductase (Bos taurus, UniProt P16116)
T1 construct: partially purified aldose reductase enzyme obtained from calf lens; from tissue; host or cells: calf lens
Assay: Inhibition of aldose reductase enzyme activity (procedure of U.S. Pat. No. 3,821,383, based on Hayman et al.)
Assay type: biochemical
Details: partially purified aldose reductase from calf lens; for inhibition at 100 µM: 10^-4 M; for inhibition at 10 µM: 10^-5 M
From the text: The activity of the compounds of this invention as aldose reductase inhibitors and as agents for the treatment of diabetic cataracts may be determined by standard pharmacological tests. Such tests include, for example, measuring their ability to inhibit the enzyme activity of isolated aldose reductase, following the general procedure described in U.S. Pat. No. 3,821,383 and based on the procedure of Hayman et al., J. Biol. Chem. 240, 877 (1965). Based on the activity of the compounds of this invention in this test, it is expected that the compounds will also show activity as aldose reductase inhibitors when tested at suitable concentrations in other standard pharmaceutical tests, for example those measuring their ability to reduce or inhibit sorbitol accumulation in the sciatic nerve of acutely streptozotocinized (i.e. diabetic) rats; measuring their ability to reverse already-elevated sorbitol level in the sciatic nerve and lens of chronic streptozotocin-induced diabetic rats; measuring their ability to prevent or inhibit galacticol formation in the lens of acutely galatosemic rats; and measuring their ability to delay cataract formation and reduce the severity of lens opacities in chronic galactosemic rats.
The compounds produced in Examples 4, 7, 8, 9 and 10 were tested for their ability to reduce or inhibit aldose reductase enzyme activity, following the procedure described in U.S. Pat. No. 3,821,383 and based on the procedure of Hayman et. al., Journal of Biological Chemistry, 240, 877 (1965). The substrate employed was partially purified aldose reductase enzyme obtained from calf lens. The results obtained with each compound at a concentration of 10^-4 M and 10^-5 M are expressed as percent inhibition of enzyme activity.

SMILES: Cc1nc(Oc2ccc(Cl)cc2)c2ccccc2c1CC(=O)O [Example 9, 1-(4-Chlorophenoxy)-3-methyl-4-isoquinoline Acetic Acid]
- inhibition at 100 µM: 95%
- inhibition at 10 µM: 91%

SMILES: Cc1nc(N(C)Cc2ccc(Cl)cc2)c2ccccc2c1CC(=O)O [Example 10, 1-(N-4-Chlorobenzyl-N-methyl-amino)-3-methyl-4-isoquinoline Acetic Acid Hydrochloride]
- inhibition at 100 µM: 99%
- inhibition at 10 µM: 97%

Second part, the compound after the results:

- inhibition at 100 µM: 83%
- inhibition at 10 µM: 95%
SMILES: Cc1nc(OCc2ccc(Cl)c(Cl)c2)c2ccccc2c1CC(=O)O [Example 8, 1-(3,4-Dichlorobenzyloxy)-3-methyl-4-isoquinoline Acetic Acid]

- inhibition at 100 µM: 27%
SMILES: Cc1c(CC(=O)O)c2ccccc2c(=O)n1Cc1ccc(Cl)c(Cl)c1 [Example 7, 2-(3,4-Dichlorobenzyl)-1,2-dihydro-3-methyl-1-oxo-4-isoquinoline Acetic Acid]

- inhibition at 100 µM: 90%
- inhibition at 10 µM: 77%
SMILES: Cc1c(CC(=O)O)c2ccccc2c(=O)n1OCc1ccc(Cl)c(Cl)c1 [Example 4, 2-(3,4-Dichlorobenzyloxy)-1,2-dihydro-3-methyl-1-oxo-4-isoquinoline Acetic Acid]
